US9796753B2, “N-substituted indenoisoquinolines and syntheses thereof” (Purdue Research Foundation, priority 2005, dated 2017)
Like-named read-outs stand apart in the source and are kept apart here.

Experiments:
Human recombinant Top1 = target: T1, Human recombinant Top1 (Homo sapiens, UniProt P11387); experiment: Topoisomerase 1-mediated DNA cleavage reactions (B), 117-bp DNA oligonucleotide; type: biochemical; set-up: key to Top1 inhibitory activity (level): 0, no detectable activity; +, weak activity; ++, similar activity to compound 33; +++, greater activity than 33; ++++, equipotent to 32; Ambiguous scores (e.g., between two values) are designated with parentheses (e.g., ++(+) would be between ++ and +++); key to Top1 (compound-induced DNA cleavage due to Top1 inhibition): 0, no detectable activity; +, weak activity; ++, similar activity to compound 5; +++, greater activity than 34; ++++ , equipotent to 32; The (+) ranking indicates the activity lies between two given values; settings: Table 5; for Top1 inhibitory activity (level): relative to compounds 32 and 33; for Top1 (compound-induced DNA cleavage due to Top1 inhibition): semiquantitative scale relative to 1 μM camptothecin (32) or MJ-III-65 (34)
T1 construct: made in house
T1 sequence (P11387 1-765): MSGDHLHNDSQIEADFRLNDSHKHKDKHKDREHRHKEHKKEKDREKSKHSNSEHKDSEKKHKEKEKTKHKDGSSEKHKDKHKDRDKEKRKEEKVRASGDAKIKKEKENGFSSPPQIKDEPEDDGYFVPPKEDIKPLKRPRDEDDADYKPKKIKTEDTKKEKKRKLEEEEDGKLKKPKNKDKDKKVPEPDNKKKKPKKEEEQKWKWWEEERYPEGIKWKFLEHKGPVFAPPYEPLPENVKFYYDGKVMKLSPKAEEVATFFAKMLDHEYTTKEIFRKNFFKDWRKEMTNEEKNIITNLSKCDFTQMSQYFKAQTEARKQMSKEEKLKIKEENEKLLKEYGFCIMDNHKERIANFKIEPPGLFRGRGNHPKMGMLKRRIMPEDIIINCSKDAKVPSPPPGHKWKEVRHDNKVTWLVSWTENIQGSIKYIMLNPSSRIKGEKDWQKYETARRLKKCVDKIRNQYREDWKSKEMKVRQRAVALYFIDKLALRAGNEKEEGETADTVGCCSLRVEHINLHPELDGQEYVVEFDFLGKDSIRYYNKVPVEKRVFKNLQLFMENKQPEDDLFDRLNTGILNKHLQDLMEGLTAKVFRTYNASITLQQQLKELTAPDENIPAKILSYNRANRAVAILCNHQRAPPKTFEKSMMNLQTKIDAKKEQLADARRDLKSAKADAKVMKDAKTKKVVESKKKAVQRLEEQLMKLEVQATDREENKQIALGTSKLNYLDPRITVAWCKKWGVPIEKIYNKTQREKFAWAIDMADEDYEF
Experimental: Human recombinant Top1 was purified from baculovirus as described in Bailly, C. Curr. Med. Chem. 2000, 7, 39-58. DNA cleavage reactions were prepared as previously reported with the exception of the DNA substrate in Saltz, et al. Oncologist 1997, 2, 402-409.
Approximately 2 nM radiolabeled DNA substrate was incubated with recombinant Top1 in 20 μL of reaction buffer [10 mM Tris-HCl (pH 7.5), 50 mM KCl, 5 mM MgCl2, 0.1 mM EDTA, and 15 μg/mL BSA] at 25° C. for 20 min in the presence of various concentrations of compounds. […] Aliquots of each reaction mixture were subjected to 20% denaturing PAGE. Gels were dried and visualized using a phosphoimager and ImageQuant software (Molecular Dynamics).
All of the new indenoisoquinoline derivatives with C-2 side chains were tested in Top1-mediated DNA cleavage assays. For this purpose, a ^32P 3′-end labeled 117-bp DNA fragment was incubated with Top1 and four 10-fold dilutions starting from 100 μM of a tested compound. The DNA fragments were separated on 20% PAGE denaturing gels. The Top1 inhibitory activities were assigned on the basis of the visual inspection of the number and intensities of the gel bands corresponding to Top1-mediated DNA cleavage fragments. […] Ambiguous scores (e.g., between two values) are designated with parentheses (e.g., ++(+) would be between ++ and +++).

recombinant TDP1 = recombinant TDP1 (Homo sapiens, UniProt Q9NUW8); experiment: Gel-based assay measuring the inhibition of recombinant TDP1; type: biochemical; settings: for IC50: Table 5, determined in duplicate
Chain of recombinant TDP1 (Q9NUW8 whole entry): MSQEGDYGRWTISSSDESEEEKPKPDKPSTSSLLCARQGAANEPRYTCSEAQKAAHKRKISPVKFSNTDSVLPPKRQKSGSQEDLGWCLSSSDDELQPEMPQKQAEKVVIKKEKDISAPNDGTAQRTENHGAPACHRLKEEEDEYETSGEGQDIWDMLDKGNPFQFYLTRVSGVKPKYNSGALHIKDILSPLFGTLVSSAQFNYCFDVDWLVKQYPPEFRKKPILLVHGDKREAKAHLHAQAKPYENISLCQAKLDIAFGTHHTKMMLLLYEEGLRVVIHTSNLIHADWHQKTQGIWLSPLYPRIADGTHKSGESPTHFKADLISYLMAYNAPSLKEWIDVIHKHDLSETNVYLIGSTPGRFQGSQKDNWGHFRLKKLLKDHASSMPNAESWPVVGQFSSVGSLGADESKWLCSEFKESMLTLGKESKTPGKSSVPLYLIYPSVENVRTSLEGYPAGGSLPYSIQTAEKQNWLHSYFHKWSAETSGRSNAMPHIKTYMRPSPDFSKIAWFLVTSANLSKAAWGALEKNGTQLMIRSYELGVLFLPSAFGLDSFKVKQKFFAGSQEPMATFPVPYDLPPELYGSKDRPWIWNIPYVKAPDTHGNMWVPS
Experimental: A 5′-[^32P]-labeled single-stranded DNA oligonucleotide containing a 3′-phosphotyrosine (N14Y) was generated as described by Dexheimer et al. (J. Med. Chem. 2009, 52, 7122-7131). The DNA substrate was then incubated with 5 μM recombinant TDP1 in the absence or presence of inhibitor for 15 min at room temperature in a buffer containing 50 mM Tris HCl, pH 7.5, 80 mM KCl, 2 mM EDTA, 1 mM DTT, 40 μg/ml BSA and 0.01% Tween-20. Reactions were terminated by the addition of 1 volume of gel loading buffer [99.5% (v/v) formamide, 5 mM EDTA, 0.01% (w/v) xylene cyanol, and 0.01% (w/v) bromophenol blue]. Samples were subjected to a 16% denaturing PAGE and gels were exposed after drying to a PhosphorImager screen (GE Healthcare). Gel images were scanned using a Typhoon 8600 (GE Healthcare) and densitometric analyses were performed using the ImageQuant software (GE Healthcare).
The TDP1 inhibitory activities of the O-2-substituted indenoisoquinolines were measured by determining their abilities to inhibit the hydrolysis of the phosphodiester linkage between tyrosine and the 3′-end of a DNA oligonucleotide substrate and thus prevent the generation of an oligonucleotide with a free 3′-phosphate (N14P, Scheme 13). Therefore, the disappearance of the gel band for N14P indicates TDP1 inhibition.
Tyrosyl-DNA phosphodiesterase 1 (TDP1) is a DNA repair enzyme that repairs cytotoxic DNA damage induced by Top1 inhibitors.

breast MDA-MB-435 = experiment: COMPARE screening (NCI human cancer cell line screen), cytotoxicity GI50; type: cell-based; settings: Homo sapiens, MDA-MB-435, read-out: cytotoxicity (GI50) breast MDA-MB-435
Experimental: COMPARE screening. The compounds described herein were examined for antiproliferative activity against the human cancer cell lines in the National Cancer Institute screen (COMPARE screening), in which the activity of each compound was evaluated with approximately 55 different cancer cell lines of diverse tumor origins. […] Therefore, the MGM value represents an overall assessment of toxicity of the compound across numerous cell lines.

[1] = test system: all human cancer cell lines successfully tested; experiment: NCI screen mean graph midpoint (MGM) for growth inhibition; type: cell-based; settings: Table 1; average GI50 of all cell lines tested (approximately 55), test range 10^−8 to 10^−4 molar
Procedure, shortened: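 NCI60 panel cells exposed to compound at 100, 10, 1, 0.1 and 0.01 μM for 48 h, then sulforhodamine B staining. Percentage growth versus control plotted against log concentration; MGM is the midpoint across all lines tested.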

lung HOP-62 = experiment: COMPARE screening (NCI human cancer cell line screen), cytotoxicity GI50; type: cell-based; settings: Homo sapiens, HOP-62, read-out: cytotoxicity (GI50) lung HOP-62
Procedure, shortened: (§1)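 Sulforhodamine B read-out after 48 h exposure over five log concentrations (0.01-100 μM) in the NCI 60-cell-line panel. GI50 derived from percentage growth, as OD ratio to control, versus log10 concentration.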

melanoma UACC-62 = experiment: as above; type: cell-based; settings: Homo sapiens, UACC-62, read-out: cytotoxicity (GI50) melanoma UACC-62
Procedure, shortened: as §1

renal SN12C = experiment: as above; type: cell-based; settings: Homo sapiens, SN12C, read-out: cytotoxicity (GI50) renal SN12C
Procedure, shortened: as §1

ovarian OVCAR-3 = experiment: as above; type: cell-based; settings: Homo sapiens, OVCAR-3, read-out: cytotoxicity (GI50) ovarian OVCAR-3
Procedure, shortened: as §1

CNS SF-539 = experiment: as above; type: cell-based; settings: Homo sapiens, CNSSF-539, read-out: cytotoxicity (GI50) CNS SF-539
Procedure, shortened: as §1

prostate DU-145 = experiment: as above; type: cell-based; settings: Homo sapiens, DU-145, read-out: cytotoxicity (GI50) prostate DU-145
Procedure, shortened: as §1

colon HCT-116 = experiment: as above; type: cell-based; settings: Homo sapiens, HCT-116, read-out: cytotoxicity (GI50) colon HCT-116
Procedure, shortened: as §1

[2] = read-out: TDP1 (IC50, semiquantitative scale)
[3] = read-out: TDP1 inhibitory activity (potency score)

## COc1cc2c(=O)n(CCCN3CCOCC3)c3c(c2cc1OCCCN1CCN(C)CC1)C(=O)c1cc2c(cc1-3)OCO2 [Compound 26, 3-Methoxy-2-(3-(4-methylpiperazin-1-yl)propoxy)-6-(3-morpholinopropyl)-5H-[1,3]dioxolo[4′,5′:5,6]indeno[1,2-c]isoquinoline-5,12(6H)-dione]
Human recombinant Top1
  Top1 inhibitory activity (level): +++
  Top1 (compound-induced DNA cleavage due to Top1 inhibition): +++
Recombinant TDP1
  TDP1 inhibitory activity (in words): no TDP1 inhibitory activity was observed
Recombinant TDP1; [2]
  IC50: > 111 µM

## Cl.NCCCCCCCCCCCCn1c2c(c3ccccc3c1=O)C(=O)c1ccccc1-2 [Compound 5av, 6-(12-Aminododecyl)-5,6-dihydro-5,11-dioxo-11H-indeno[1,2-c]isoquinoline Hydrochloride]
Breast MDA-MB-435
  GI50: 19.5 µM
[1]
  MGM (mean GI50 across cell lines): 18.2 µM
other
  melting point: 175 to 178 °C
Lung HOP-62
  GI50: 17 µM
Melanoma UACC-62
  GI50: 14.8 µM
Renal SN12C
  GI50: 13.5 µM
Ovarian OVCAR-3
  GI50: 17.8 µM
CNS SF-539
  GI50: 18.2 µM
Prostate DU-145
  GI50: 19.1 µM

## Cl.NCCCCCCCCCCn1c2c(c3ccccc3c1=O)C(=O)c1ccccc1-2 [Compound 5at, 6-(10-Aminodecyl)-5,6-dihydro-5,11-dioxo-11H-indeno[1,2-c]isoquinoline Hydrochloride]
Breast MDA-MB-435
  GI50: 11.7 µM
[1]
  MGM (mean GI50 across cell lines): 5.50 µM
other
  melting point: 189 to 192 °C
Colon HCT-116
  GI50: 2.75 µM
Lung HOP-62
  GI50: 4.79 µM
Melanoma UACC-62
  GI50: 13.8 µM
Renal SN12C
  GI50: 3.31 µM
Ovarian OVCAR-3
  GI50: 10.7 µM
CNS SF-539
  GI50: 1.82 µM
Prostate DU-145
  GI50: 3.47 µM

## Cl.NCCCCCCCCn1c2c(c3ccccc3c1=O)C(=O)c1ccccc1-2 [Compound 5ar, 6-(8-Aminooctyl)-5,6-dihydro-5,11-dioxo-11H-indeno[1,2-c]isoquinoline Hydrochloride]
Breast MDA-MB-435
  GI50: 5.62 µM
[1]
  MGM (mean GI50 across cell lines): 3.71 µM
other
  melting point: 182 to 185 °C
Colon HCT-116
  GI50: 1.66 µM
Lung HOP-62
  GI50: 2.14 µM
Melanoma UACC-62
  GI50: 3.8 µM
Renal SN12C
  GI50: 3.47 µM
Ovarian OVCAR-3
  GI50: 3.47 µM
CNS SF-539
  GI50: 2.82 µM
Prostate DU-145
  GI50: 3.39 µM

## COc1cc2c3c(n(CCCNCCC4COCCN4)c(=O)c2cc1OC)-c1cc2c(cc1C3=O)OCO2 (stereo not drawn) [Compound 5x, 6-[(3-Morpholylethylamino)-1-propyl]-5,6-dihydro-2,3-dimethoxy-8,9-methylenedioxy-5,11-dioxo-11H-indeno[1,2-c]isoquinoline]
other
  melting point: 215 to 217 °C

## COc1cc2c(=O)n(CCCN3CCOCC3)c3c(c2cc1OCCCBr)C(=O)c1cc2c(cc1-3)OCO2 [Compound 19, 2-(3-Bromopropoxy)-3-methoxy-6-(3-morpholinopropyl)-5H-[1,3]dioxolo[4′,5′: 5,6]indeno[1,2-c]isoquinoline-5,12(6H)-dione]
other
  melting point: 197 to 199 °C

## COc1cc2c(=O)n(CCCN3CCOCC3)c3c(c2cc1OCC(=O)NN)C(O)c1cc2c(cc1-3)OCO2 (stereo not drawn) [Compound 31, 2-((12-Hydroxy-3-methoxy-6-(3-morpholinopropyl)-5-oxo-6,12-dihydro-5H-[1,3]dioxolo[4′,5′:5,6]indeno[1,2-c]isoquinolin-2-yl)oxy)acetohydrazide]
Human recombinant Top1
  Top1 inhibitory activity (level): + or ++
  Top1 (compound-induced DNA cleavage due to Top1 inhibition): +
Recombinant TDP1; [2]
  IC50: > 111 µM

## CCNCCCOc1cc2c3c(n(CCCN4CCOCC4)c(=O)c2cc1OC)-c1cc2c(cc1C3=O)OCO2 [Compound 24, 2-(3-(Ethylamino)propoxy)-3-methoxy-6-(3-morpholinopropyl)-5H-[1,3]dioxolo [4′,5′:5,6]indeno[1,2-c]isoquinoline-5,12(6H)-dione]
Human recombinant Top1
  Top1 inhibitory activity (level): +++
  Top1 (compound-induced DNA cleavage due to Top1 inhibition): +++
Recombinant TDP1; [2]
  IC50: 12 to 37 µM
Recombinant TDP1; [3]
  IC50: 12 to 37 µM

## COC1C=c2c3c([nH]c(=O)c2=CC1(CCCN1CCOCC1)OC)-c1cc2c(cc1C3=O)OCO2 (stereo not drawn) [Compound 5q, 3-[(Morpholin-4-yl)-1-propyl]-5,6-dihydro-2,3-dimethoxy-8,9-methylenedioxy-5,11-dioxo-11H-indeno[1,2-c]isoquinoline]
other
  melting point: 290 to 292 °C

## COc1cc2c(=O)n(CCCN3CCOCC3)c3c(c2cc1OCCCN(C)C)C(=O)c1cc2c(cc1-3)OCO2 [Compound 23, 2-(3-(Dimethylamino)propoxy)-3-methoxy-6-(3-morpholinopropyl)-5H-[1,3]dioxolo[4′,5′:5,6]indeno[1,2-c]isoquinoline-5,12(6H)-dione]
Human recombinant Top1
  Top1 inhibitory activity (level): +++
  Top1 (compound-induced DNA cleavage due to Top1 inhibition): +++
Recombinant TDP1; [2]
  IC50: 12 to 37 µM
Recombinant TDP1; [3]
  IC50: 12 to 37 µM

## COC1C=c2c3c([nH]c(=O)c2=CC1(CCCN1CCSCC1)OC)-c1cc2c(cc1C3=O)OCO2 (stereo not drawn) [Compound 5r, 3-[(Thiomorpholin-4-yl)-1-propyl]-5,6-dihydro-2,3-dimethoxy-8,9-methylenedioxy-5,11-dioxo-11H-indeno[1,2-c]isoquinoline]
other
  melting point: 306 to 308 °C
